Measured values reported in patent US11420958B2, “Aryl and heteroaryl substituted indole compounds” (BRISTOL-MYERS SQUIBB COMPANY, priority 2017, dated 2022).

Columns and labels:
Format in all cases: cell-based
[1] = target: human TLR8 (Homo sapiens (Human), UniProt Q9NR97); experiment: TLR8 inhibition reporter assay (HEK-Blue, SEAP); conditions: HEK-Blue cells overexpressing human TLR8, R848 15.9 μM stimulation
Outline: (§1)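 Cells are treated with compound over a 0.05 nM–50 μM final range for 30 min at room temperature before agonist addition: gardiquimod at 7.5 μM for TLR7, R848 at 15.9 μM for TLR8, ODN2006 at 5 nM for TLR9. SEAP is measured after 22 h at 37 °C.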

[2] = target: human TLR9 (Homo sapiens (Human), UniProt Q9NR96); experiment: TLR9 inhibition reporter assay (HEK-Blue, SEAP); conditions: HEK-Blue cells overexpressing human TLR9, ODN2006 5 nM stimulation
human TLR9, sequence (Q9NR96 26-1032): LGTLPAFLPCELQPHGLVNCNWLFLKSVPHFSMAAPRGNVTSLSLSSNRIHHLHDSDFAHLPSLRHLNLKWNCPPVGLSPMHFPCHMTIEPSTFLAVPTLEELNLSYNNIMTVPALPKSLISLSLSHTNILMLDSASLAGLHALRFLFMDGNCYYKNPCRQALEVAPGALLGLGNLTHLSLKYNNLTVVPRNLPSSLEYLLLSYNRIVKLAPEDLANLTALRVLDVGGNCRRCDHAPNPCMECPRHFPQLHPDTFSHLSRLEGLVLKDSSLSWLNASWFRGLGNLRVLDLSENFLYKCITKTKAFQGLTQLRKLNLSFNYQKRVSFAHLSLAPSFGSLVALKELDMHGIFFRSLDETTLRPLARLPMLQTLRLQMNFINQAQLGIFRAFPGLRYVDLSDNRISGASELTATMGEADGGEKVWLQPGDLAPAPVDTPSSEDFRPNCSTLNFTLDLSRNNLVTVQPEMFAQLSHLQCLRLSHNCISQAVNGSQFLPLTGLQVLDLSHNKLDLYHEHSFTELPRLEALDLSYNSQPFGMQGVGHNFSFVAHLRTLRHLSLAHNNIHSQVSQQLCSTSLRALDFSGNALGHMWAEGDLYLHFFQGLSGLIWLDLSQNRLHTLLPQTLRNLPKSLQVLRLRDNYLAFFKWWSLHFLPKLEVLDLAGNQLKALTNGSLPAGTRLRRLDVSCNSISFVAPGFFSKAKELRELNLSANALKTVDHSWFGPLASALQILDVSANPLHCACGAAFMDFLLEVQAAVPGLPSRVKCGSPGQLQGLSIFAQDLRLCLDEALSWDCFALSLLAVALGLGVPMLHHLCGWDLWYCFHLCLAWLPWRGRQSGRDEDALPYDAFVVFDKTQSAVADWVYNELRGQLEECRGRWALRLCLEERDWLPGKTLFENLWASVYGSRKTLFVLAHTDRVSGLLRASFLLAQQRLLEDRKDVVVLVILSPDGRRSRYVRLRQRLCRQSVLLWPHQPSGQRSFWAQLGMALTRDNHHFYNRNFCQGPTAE
Outline: as §1

[3] = target: human TLR7 (Homo sapiens (Human), UniProt Q9NYK1); experiment: TLR7 inhibition reporter assay (HEK-Blue, SEAP); conditions: HEK-Blue cells overexpressing human TLR7, gardiquimod 7.5 μM stimulation
human TLR7, sequence (Q9NYK1 27-1049): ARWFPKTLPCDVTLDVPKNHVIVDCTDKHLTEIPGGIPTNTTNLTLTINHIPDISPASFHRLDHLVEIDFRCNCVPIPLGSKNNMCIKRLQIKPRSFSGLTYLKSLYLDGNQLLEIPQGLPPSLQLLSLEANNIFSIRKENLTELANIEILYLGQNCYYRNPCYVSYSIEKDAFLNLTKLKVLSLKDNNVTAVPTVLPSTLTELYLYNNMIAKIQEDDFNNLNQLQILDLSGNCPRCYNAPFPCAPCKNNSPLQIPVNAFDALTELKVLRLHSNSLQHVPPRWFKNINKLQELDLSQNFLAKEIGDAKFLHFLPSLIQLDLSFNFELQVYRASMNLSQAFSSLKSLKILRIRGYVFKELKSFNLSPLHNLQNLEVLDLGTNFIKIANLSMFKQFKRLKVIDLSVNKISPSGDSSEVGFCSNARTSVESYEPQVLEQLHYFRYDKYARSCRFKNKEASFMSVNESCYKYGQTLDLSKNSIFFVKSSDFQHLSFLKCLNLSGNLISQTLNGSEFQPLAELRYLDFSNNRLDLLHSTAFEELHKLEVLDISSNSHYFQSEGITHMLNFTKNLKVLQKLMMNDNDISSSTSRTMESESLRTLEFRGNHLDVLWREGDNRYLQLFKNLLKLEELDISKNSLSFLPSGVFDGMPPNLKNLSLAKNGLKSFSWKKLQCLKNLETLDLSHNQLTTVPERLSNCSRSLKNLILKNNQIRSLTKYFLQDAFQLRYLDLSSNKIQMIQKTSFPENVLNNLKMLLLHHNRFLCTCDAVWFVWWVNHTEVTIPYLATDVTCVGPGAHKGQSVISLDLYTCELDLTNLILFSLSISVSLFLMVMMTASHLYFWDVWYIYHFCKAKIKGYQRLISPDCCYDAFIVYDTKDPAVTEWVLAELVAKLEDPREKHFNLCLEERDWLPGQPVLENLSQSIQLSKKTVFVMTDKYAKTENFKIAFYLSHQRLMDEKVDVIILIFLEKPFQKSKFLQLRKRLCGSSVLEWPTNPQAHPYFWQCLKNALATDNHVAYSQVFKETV
Outline: as §1

human TLR8, sequence (Q9NR97 27-1041): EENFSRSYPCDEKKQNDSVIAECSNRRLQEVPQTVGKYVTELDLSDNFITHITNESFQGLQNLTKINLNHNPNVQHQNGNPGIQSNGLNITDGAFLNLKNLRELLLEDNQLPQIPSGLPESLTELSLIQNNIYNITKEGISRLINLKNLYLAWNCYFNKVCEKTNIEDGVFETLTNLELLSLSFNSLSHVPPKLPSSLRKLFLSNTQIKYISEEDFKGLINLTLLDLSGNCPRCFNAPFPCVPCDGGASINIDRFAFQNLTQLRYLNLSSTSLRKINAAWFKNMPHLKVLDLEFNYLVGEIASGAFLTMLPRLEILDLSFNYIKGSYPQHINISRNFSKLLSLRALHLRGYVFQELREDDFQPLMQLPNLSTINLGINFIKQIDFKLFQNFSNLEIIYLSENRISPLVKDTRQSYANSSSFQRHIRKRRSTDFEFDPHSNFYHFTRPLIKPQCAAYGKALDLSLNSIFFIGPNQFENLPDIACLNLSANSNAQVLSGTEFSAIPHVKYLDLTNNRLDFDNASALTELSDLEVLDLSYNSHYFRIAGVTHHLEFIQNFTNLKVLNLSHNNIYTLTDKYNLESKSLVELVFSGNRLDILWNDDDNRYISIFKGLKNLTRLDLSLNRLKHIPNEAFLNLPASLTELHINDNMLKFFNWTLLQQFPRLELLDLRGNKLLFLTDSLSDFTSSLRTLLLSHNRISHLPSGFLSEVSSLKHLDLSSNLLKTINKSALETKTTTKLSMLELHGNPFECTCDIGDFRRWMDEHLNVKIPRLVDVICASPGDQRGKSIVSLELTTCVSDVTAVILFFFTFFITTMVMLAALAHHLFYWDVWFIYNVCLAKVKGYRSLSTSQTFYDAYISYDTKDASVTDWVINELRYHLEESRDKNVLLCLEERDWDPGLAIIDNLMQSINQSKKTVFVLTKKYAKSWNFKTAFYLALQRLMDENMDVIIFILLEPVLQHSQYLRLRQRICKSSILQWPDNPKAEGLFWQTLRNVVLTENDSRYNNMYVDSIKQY

Row | IC50 [1] | IC50 [2] | IC50 [3] | Structure (SMILES)
1 | 4.4 nM | 686 nM | 203 nM | CC(C)CN1CCC(NC(=O)c2nnc(-c3ccc4[nH]c(-c5ccnc6[nH]ncc56)c(C(C)C)c4c3)o2)CC1 [Example 214, N-(1-isobutylpiperidin-4-yl)-5-(3-isopropyl-2-(1H-pyrazolo[3,4-b]pyridin-4-yl)-1H-indol-5-yl)-1,3,4-oxadiazole-2-carboxamide]
2 | 41 nM | > 50000 nM | 417 nM | CNCCN1CCn2nc(-c3ccc4[nH]c(-c5ccnc6[nH]ncc56)c(C(C)C)c4c3)nc2C1 [Example 217, 2-(2-(3-isopropyl-2-(1H-pyrazolo[3,4-b]pyridin-4-yl)-1H-indol-5-yl)-5,6-dihydro-[1,2,4]triazolo[1,5-a]pyrazin-7(8H)-yl)-N-methylethan-1-amine]
3 | 93 nM | 1940 nM | 496 nM | CNCCN1CCn2nc(-c3ccc4[nH]c(-c5ccnc(C)c5)c(C(C)C)c4c3)c(C(N)=O)c2C1 [Example 218, 2-(3-isopropyl-2-(2-methylpyridin-4-yl)-1H-indol-5-yl)-5-(2-(methylamino)ethyl)-4,5,6,7-tetrahydropyrazolo[1,5-a]pyrazine-3-carboxamide]
4 | 1 nM | 138 nM | 6.6 nM | Cc1cc(-c2[nH]c3ccc(-c4nnc(C(=O)NCCN(C)C)o4)cc3c2C(C)C)cc(C)n1 [Example 223, N-(2-(dimethylamino)ethyl)-5-(2-(2,6-dimethylpyridin-4-yl)-3-isopropyl-1H-indol-5-yl)-1,3,4-oxadiazole-2-carboxamide]
5 | 2.5 nM | 229 nM | 11 nM | Cc1cc(-c2[nH]c3ccc(-c4nnc(C(=O)NCCCN(C)C)o4)cc3c2C(C)C)cc(C)n1 [Example 224, N-(3-(dimethylamino)propyl)-5-(2-(2,6-dimethylpyridin-4-yl)-3-isopropyl-1H-indol-5-yl)-1,3,4-oxadiazole-2-carboxamide]
6 | 5.5 nM | 1080 nM | 46 nM | CNCCc1nnc(-c2ccc3[nH]c(-c4ccc5ncnn5c4)c(C(C)C)c3c2)o1 [Example 226, 2-(5-(2-([1,2,4]triazolo[1,5-a]pyridin-6-yl)-3-isopropyl-1H-indol-5-yl)-1,3,4-oxadiazol-2-yl)-N-methylethan-1-amine]
7 | 9.4 nM | 892 nM | 61 nM | CC(C)c1c(-c2ccc3ncnn3c2)[nH]c2ccc(-c3nnc([C@@H]4CCCNC4)o3)cc12 [Example 227, (R)-2-(2-([1,2,4]triazolo[1,5-a]pyridin-6-yl)-3-isopropyl-1H-indol-5-yl)-5-(piperidin-3-yl)-1,3,4-oxadiazole]
8 | 3.2 nM | 950 nM | 11 nM | Cc1cc(-c2[nH]c3ccc(-c4nnc([C@@H]5CCCNC5)o4)cc3c2C(C)C)cc(C)n1 [Example 232, (R)-2-(2-(2,6-dimethylpyridin-4-yl)-3-isopropyl-1H-indol-5-yl)-5-(piperidin-3-yl)-1,3,4-oxadiazole]
9 | 4.5 nM | 366 nM | 229 nM | CC(C)c1c(-c2ccnc3[nH]ncc23)[nH]c2ccc(-c3nc(C(=O)NCCN(C)C)co3)cc12 [Example 234, N-(2-(dimethylamino)ethyl)-2-(3-isopropyl-2-(1H-pyrazolo[3,4-b]pyridin-4-yl)-1H-indol-5-yl)oxazole-4-carboxamide]
10 | 301 nM | > 50000 nM | 667 nM | Cc1cc(-c2[nH]c3ccc(-c4ccc(Cl)nc4)cc3c2C(C)C)ccn1 [Example 235, 5-(6-chloropyridin-3-yl)-3-isopropyl-2-(2-methylpyridin-4-yl)-1H-indole]
11 | 2.7 nM | 655 nM | 13 nM | Cc1cc(-c2[nH]c3ccc(-c4ccc(N)nc4)cc3c2C(C)C)cc(C)n1 [Example 236, 5-(2-(2,6-dimethylpyridin-4-yl)-3-isopropyl-1H-indol-5-yl)pyridin-2-amine]
12 | 2 nM | 9730 nM | 30 nM | Cc1cc(-c2[nH]c3ccc(-c4ccc(N)nc4)cc3c2C(C)C)ccn1 [Example 237, 5-(3-isopropyl-2-(2-methylpyridin-4-yl)-1H-indol-5-yl)pyridin-2-amine]
13 | 2.2 nM | 589 nM | 4.8 nM | CNCCNc1ccc(-c2ccc3[nH]c(-c4cc(C)nc(C)c4)c(C(C)C)c3c2)cn1 [Example 239, N1-(5-(2-(2,6-dimethylpyridin-4-yl)-3-isopropyl-1H-indol-5-yl)pyridin-2-yl)-N2-methylethane-1,2-diamine]

Further lines, the compound ahead of its results:

Row | Structure (SMILES) | IC50 [1] | IC50 [2] | IC50 [3]
14 | CNC(=O)c1c(-c2ccc3[nH]c(-c4ccnc(C)c4)c(C(C)C)c3c2)nn2c1CNCC2 [Example 215, 2-(3-isopropyl-2-(2-methylpyridin-4-yl)-1H-indol-5-yl)-N-methyl-4,5,6,7-tetrahydropyrazolo[1,5-a]pyrazine-3-carboxamide] | 14 nM | 20800 nM | 9.8 nM
15 | Cc1cc(-c2[nH]c3ccc(-c4nn5c(c4C(N)=O)CNCC5)cc3c2C(C)C)ccn1 [Example 216, 2-(3-isopropyl-2-(2-methylpyridin-4-yl)-1H-indol-5-yl)-4,5,6,7-tetrahydropyrazolo[1,5-a]pyrazine-3-carboxamide] | 6.9 nM | 35000 nM | 25 nM
16 | CNCCN1CCn2nc(-c3ccc4[nH]c(-c5ccnc(C)c5)c(C(C)C)c4c3)c(C(=O)NC)c2C1 [Example 219, 2-(3-isopropyl-2-(2-methylpyridin-4-yl)-1H-indol-5-yl)-N-methyl-5-(2-(methylamino)ethyl)-4,5,6,7-tetrahydropyrazolo[1,5-a]pyrazine-3-carboxamide] | 147 nM | 2600 nM | 163 nM
17 | CC(C)c1c(-c2ccnc3[nH]ncc23)[nH]c2ccc(-c3nnc(C4CN5CCC4CC5)o3)cc12 (stereo not drawn) [Example 220, 2-(3-isopropyl-2-(1H-pyrazolo[3,4-b]pyridin-4-yl)-1H-indol-5-yl)-5-(quinuclidin-3-yl)-1,3,4-oxadiazole] | 12 nM | 238 nM | 76 nM
18 | Cc1cc(-c2[nH]c3ccc(-c4nnc(C(=O)NC5CCN(C(C)C)CC5)o4)cc3c2C(C)C)cc(C)n1 [Example 221, 5-(2-(2,6-dimethylpyridin-4-yl)-3-isopropyl-1H-indol-5-yl)-N-(1-isopropylpiperidin-4-yl)-1,3,4-oxadiazole-2-carboxamide] | 2.5 nM | 515 nM | 15 nM
19 | Cc1cc(-c2[nH]c3ccc(-c4nnc(C5CN6CCC5CC6)o4)cc3c2C(C)C)ccn1 (stereo not drawn) [Example 222, 2-(3-isopropyl-2-(2-methylpyridin-4-yl)-1H-indol-5-yl)-5-(quinuclidin-3-yl)-1,3,4-oxadiazole] | 3.2 nM | 1240 nM | 34 nM
20 | Cc1cc(-c2[nH]c3ccc(-c4cc5c(s4)CNCC5)cc3c2C(C)C)ccn1 [Example 225, 2-(3-isopropyl-2-(2-methylpyridin-4-yl)-1H-indol-5-yl)-4,5,6,7-tetrahydrothieno[2,3-c]pyridine] | 1 nM | 623 nM | 16 nM
21 | Cc1cc(-c2[nH]c3ccc(-c4cc5c(s4)CN(C(C)C)CC5)cc3c2C(C)C)ccn1 [Example 228, 6-isopropyl-2-(3-isopropyl-2-(2-methylpyridin-4-yl)-1H-indol-5-yl)-4,5,6,7-tetrahydrothieno[2,3-c]pyridine] | 0.9 nM | 652 nM | 50 nM
22 | CC(C)c1c(-c2ccnc3[nH]ncc23)[nH]c2ccc(-c3cc4c(s3)CNCC4)cc12 [Example 229, 2-(3-isopropyl-2-(1H-pyrazolo[3,4-b]pyridin-4-yl)-1H-indol-5-yl)-4,5,6,7-tetrahydrothieno[2,3-c]pyridine] | 1.5 nM | 961 nM | 32 nM
23 | Cc1cc(-c2[nH]c3ccc(-c4nnc(C(=O)N5CCC(N)CC5)o4)cc3c2C(C)C)cc(C)n1 [Example 230, (4-aminopiperidin-1-yl)(5-(2-(2,6-dimethylpyridin-4-yl)-3-isopropyl-1H-indol-5-yl)-1,3,4-oxadiazol-2-yl)methanone] | 9.3 nM | 343 nM | 19 nM
24 | Cc1cc(-c2[nH]c3ccc(-c4nnc(C5CN6CCC5CC6)o4)cc3c2C(C)C)ccn1 (stereo not drawn) [Example 231, 2-(3-isopropyl-2-(2-methylpyridin-4-yl)-1H-indol-5-yl)-5-(quinuclidin-3-yl)-1,3,4-oxadiazole] | 5.9 nM | 895 nM | 69 nM
25 | CC(C)c1c(-c2ccnc3[nH]ncc23)[nH]c2ccc(-c3nc(C(=O)N4CCCN(C)CC4)co3)cc12 [Example 233, (2-(3-isopropyl-2-(1H-pyrazolo[3,4-b]pyridin-4-yl)-1H-indol-5-yl)oxazol-4-yl)(4-methyl-1,4-diazepan-1-yl)methanone] | 2.5 nM | 2080 nM | 195 nM
26 | Cc1cc(-c2[nH]c3ccc(-c4ccc(NC(=O)CN(C)C)nc4)cc3c2C(C)C)cc(C)n1 [Example 238, 2-(dimethylamino)-N-(5-(2-(2,6-dimethylpyridin-4-yl)-3-isopropyl-1H-indol-5-yl)pyridin-2-yl)acetamide] | 2.7 nM | 451 nM | 9.7 nM
27 | Cc1cc(-c2[nH]c3ccc(-c4nnc(C(=O)N5CCC(NC(C)C)CC5)o4)cc3c2C(C)C)cc(C)n1 [Example 240, (5-(2-(2,6-dimethylpyridin-4-yl)-3-isopropyl-1H-indol-5-yl)-1,3,4-oxadiazol-2-yl)(4-(isopropylamino)piperidin-1-yl)methanone] | 7.5 nM | 367 nM | 39 nM
